Laboratory results taken from patent US10703748B2, “Diazanaphthalen-3-yl carboxamides and preparation and use thereof” (Samumed, LLC, priority 2017, dated 2020).
Where two headings read alike, the source gives them in different places.

How the values were obtained:
DYRK1A kinase = DYRK1A kinase (Homo sapiens, UniProt Q13627); assay: DYRK1A kinase activity (Ser/Thr 18 peptide Z-lyte FRET assay); assay type: biochemical; details: recombinant DYRK1A, 30 μM ATP, one hour at room temperature;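 also: kinase activity read as coumarin/fluorescein emission ratio after development step, with unphosphorylated and phosphorylated peptide forms setting 0% and 100% controls, values from dose-response curves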
IL-6 = IL-6 inhibition in LPS-stimulated human peripheral blood mononuclear cells (HTRF); details: Homo sapiens, PBMC; for EC50: 22 h; for inhibition at 10 µM: read-out: percentage in parentheses after EC50 >10
[1] = system: Wnt-responsive Sp5-Luc reporter in SW480 colon carcinoma cells; assay: Screening assay for Wnt activity (Sp5-Luc reporter gene assay); details: Homo sapiens; for EC50: SW480; for inhibition at 10 µM: SW480, read-out: percent inhibition at 10 μM
[2] = system: SW480 colon carcinoma cells; assay: Cell viability assay (CellTiter-Glo); details: Homo sapiens; for EC50: SW480, 96 h; for inhibition at 10 µM: SW480, read-out: percent inhibition at 10 μM
GSK3β kinase = GSK3β kinase (Homo sapiens, UniProt P49841); assay: GSK3β kinase activity (Ser/Thr 09 peptide Z-lyte FRET assay); assay type: biochemical
[3] = system: α-smooth muscle actin (aSMA) positive LL29 cells; assay: Inhibition of the fibrotic process: αSMA staining in TGF-β1 treated LL29 fibroblasts from IPF patients; details: Homo sapiens, Fibroblast; for EC50: 96 h; for inhibition at 10 µM: read-out: percentage in parentheses after EC50 >10
[4] = system: Tau phosphorylation at Ser396 (pSer396); assay: Tau phosphorylation at Ser396 (pSer396) in SH-SY5Y cells, ELISA / western blot; assay type: cell-based, human; details: Homo sapiens;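 also: decrease in pSer396 Tau measured in lysates of treated cells by colorimetric ELISA or chemiluminescent western blot, same pSer396 antibody for both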
Protocol: Two days before treatment, cells were seeded onto 96 well plates at 5×10^4 cells/well.
The above synthesized compounds were screened using the cell assay procedure to assess decrease Tau phosphorylation at Ser396 (pSer396) described below.
Cells were lysed with RIPA buffer complemented with phosphatase and protease inhibitors then lysates were spun down at 12,000 g for 10 min to remove any cellular debris.

[5] = system: secreted cytokines TNFα, IL-6 and KC-GRO; assay: Secreted cytokines in Lipopolysaccharide-stimulated BV-2 cells (Table 9 does not say which cytokine); assay type: cell-based, mouse; details: Mus musculus, BV-2, 5 h
[6] = recombinant kinase, 46 μM ATP, one hour at room temperature, read-out: EC50
[7] = SH-SY5Y cells, overnight (16-18 h), read-out: pSer396 Tau EC50

Sequence of GSK3β kinase (P49841 whole entry): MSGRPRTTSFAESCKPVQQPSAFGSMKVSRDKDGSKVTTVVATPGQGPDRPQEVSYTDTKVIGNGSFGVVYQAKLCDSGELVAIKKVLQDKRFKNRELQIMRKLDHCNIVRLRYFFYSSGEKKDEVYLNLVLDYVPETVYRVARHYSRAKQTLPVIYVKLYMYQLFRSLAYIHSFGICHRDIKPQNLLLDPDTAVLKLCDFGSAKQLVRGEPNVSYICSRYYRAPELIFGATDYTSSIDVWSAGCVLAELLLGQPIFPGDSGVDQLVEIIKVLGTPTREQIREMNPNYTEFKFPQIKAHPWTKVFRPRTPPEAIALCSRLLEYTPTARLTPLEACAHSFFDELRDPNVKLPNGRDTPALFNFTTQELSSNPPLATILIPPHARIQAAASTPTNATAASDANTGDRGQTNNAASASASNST

SMILES | EC50 (DYRK1A kinase) | EC50 (IL-6) | inhibition at 10 µM (IL-6) | EC50 [1] | EC50 [2] | EC50 (GSK3β kinase; [6]) | EC50 [3] | EC50 [4, 7] | inhibition at 10 µM [2] | inhibition at 10 µM [3] | inhibition at 10 µM [1] | EC50 ([4]; SH-SY5Y, read-out: EC50 in the Tau assay) | EC50 ([5]; read-out: EC50) | EC50 [5] | EC50 (GSK3β kinase)
CCN(CC)CC(=O)Nc1cc2cc(-c3cnn(C)c3CN3CCCCC3)ncc2cn1 [Compound 3910, 2-(Diethylamino)-N-(6-(1-methyl-5-(piperidin-1-ylmethyl)-1H-pyrazol-4-yl)-2,7-naphthyridin-3-yl)acetamide] | 59 nM | > 10000 nM | 4.2% | 1240 nM | 3540 nM | 115 nM | 1070 nM | 989 nM |  |  |  |  |  |  | 
COC1CCN(CC(=O)Nc2cc3nc(-c4cn(C)nn4)ccc3cn2)CC1 [Compound 358, 2-(4-Methoxypiperidin-1-yl)-N-(2-(1-methyl-1H-1,2,3-triazol-4-yl)-1,6-naphthyridin-7-yl)acetamide] | 364 nM | > 10000 nM | 2% | 189 nM | > 10000 nM | 560 nM | > 10000 nM | 1500 nM | 38% | 9.8% |  |  |  |  | 
Cc1ncc(-c2ccc3cnc(NC(=O)Cn4ccnc4)cc3n2)o1 [Compound 589, 2-(1H-Imidazol-1-yl)-N-(2-(2-methyloxazol-5-yl)-1,6-naphthyridin-7-yl) acetamide] | 50 nM | > 10000 nM | 5.9% | > 10000 nM | > 10000 nM | 156 nM | > 10000 nM | 10000 nM | 22.9% | 41.6% | 7.8% |  |  |  | 
Cn1cc(-c2cc3cc(NC(=O)c4ccnc(OC5CCNCC5)c4)ncc3cn2)cn1 [Compound 3780, N-(6-(1-Methyl-1H-pyrazol-4-yl)-2,7-naphthyridin-3-yl)-2-(piperidin-4-yloxy)isonicotinamide] | 16 nM | > 10000 nM | 6.7% | 1530 nM | 2260 nM | 275 nM | 4760 nM | > 10000 nM |  |  |  |  |  |  | 
CC(C)CN1CCC(CC(=O)Nc2cc3cc(-c4cnn(C)c4)ncc3cn2)C1 (stereo not shown) [Compound 3749, 2-(1-Isobutylpyrrolidin-3-yl)-N-(6-(1-methyl-1H-pyrazol-4-yl)-2,7-naphthyridin-3-yl)acetamide] | 10 nM | 8800 nM |  | 92 nM | 3610 nM | 6 nM | 167 nM | 87 nM |  |  |  |  |  |  | 
COC1CCN(CC(=O)Nc2ncc3ccc(-c4cn(C)nn4)cc3n2)CC1 [Compound 1264, 2-(4-Methoxypiperidin-1-yl)-N-(7-(1-methyl-1H-1,2,3-triazol-4-yl)quinazolin-2-yl)acetamide] | 43 nM | > 10000 nM | 7.9% | 9710 nM | > 10000 nM | 17 nM | > 10000 nM | 902 nM | 27.8% | 5.7% |  |  |  |  | 
COc1ccc2c(c1)[nH]c1c(C)nccc12 [Harmine, reference compound] |  |  |  |  |  |  |  |  |  |  |  | > 10000 nM |  |  | 
C[C@H]1CCCN1CC(=O)Nc1cc2cc(-c3cnn(C)c3)cnc2cn1 [Compound 2767, (S)—N-(3-(1-Methyl-1H-pyrazol-4-yl)-1,7-naphthyridin-6-yl)-2-(2-methylpyrrolidin-1-yl)acetamide] | 34 nM | > 10000 nM | 0% | > 10000 nM | > 10000 nM | 2520 nM | > 10000 nM |  | 37% | 13.8% | 20.7% |  | 896 nM |  | 
CC(F)(F)CN1CCC(C(=O)Nc2cc3nc(-c4cnco4)ccc3cn2)CC1 [Compound 540, 1-(2,2-Difluoropropyl)-N-(2-(oxazol-5-yl)-1,6-naphthyridin-7-yl)piperidine-4-carboxamide] | 22 nM | > 10000 nM | 3.9% | > 10000 nM | > 10000 nM | 644 nM | > 10000 nM |  | 5.3% | 50% | 11.8% |  | ≥ 10000 nM |  | 
CN1CCN(c2cc(C(=O)Nc3cc4nc(-c5cnn(C)c5)ccc4cn3)ccn2)CC1 [Compound 147, N-(2-(1-Methyl-1H-pyrazol-4-yl)-1,6-naphthyridin-7-yl)-2-(4-methylpiperazin-1-yl)isonicotinamide] | 7 nM | 2200 nM |  | 102 nM | 311 nM | > 10000 nM | 410 nM |  |  |  |  |  | 122 nM |  | 
Cc1ncc(-c2ccc3cnc(NC(=O)c4ccncc4)cc3n2)s1 [Compound 641, N-(2-(2-Methylthiazol-5-yl)-1,6-naphthyridin-7-yl)isonicotinamide] | 8 nM | > 10000 nM | 16.4% | 977 nM | 1680 nM | 2560 nM | 347 nM |  |  |  |  |  | 433 nM |  | 
CN(C)C1CCN(c2cc(C(=O)Nc3ncc4ccc(-c5cn(C)nn5)cc4n3)ccn2)CC1 [Compound 1282, 2-(4-(Dimethylamino)piperidin-1-yl)-N-(7-(1-methyl-1H-1,2,3-triazol-4-yl)quinazolin-2-yl)isonicotinamide] | 8 nM | > 10000 nM | 42.4% | 742 nM | 1340 nM | 453 nM | 2540 nM |  |  |  |  |  | 1000 nM |  | 
CN1CCN(c2cc(C(=O)Nc3ncc4ccc(-c5ccc(N)nc5)cc4n3)ccn2)CC1 [Compound 1713, N-(7-(6-Aminopyridin-3-yl)quinazolin-2-yl)-2-(4-methylpiperazin-1-yl)isonicotinamide] | 27 nM | > 10000 nM | 5.7% | 1140 nM | 1560 nM |  | 5160 nM |  |  |  |  |  |  | 1000 nM | > 10000 nM
CN1CCN(c2ccc(C(=O)Nc3cc4cc(-c5cnn(C)c5)cnc4cn3)cn2)CC1 [Compound 2871, N-(3-(1-Methyl-1H-pyrazol-4-yl)-1,7-naphthyridin-6-yl)-6-(4-methylpiperazin-1-yl)nicotinamide] | 16 nM | > 10000 nM | 0% | > 10000 nM | 4680 nM | > 10000 nM | 9770 nM |  |  |  | 24.5% |  | 1700 nM |  | 
CN1CCCN(c2cc(C(=O)Nc3ncc4ccc(-c5cn(C)nn5)cc4n3)ccn2)CC1 [Compound 1285, 2-(4-Methyl-1,4-diazepan-1-yl)-N-(7-(1-methyl-1H-1,2,3-triazol-4-yl)quinazolin-2-yl)isonicotinamide] | 13 nM | > 10000 nM | 2.1% | 1650 nM | 3140 nM | 832 nM | > 10000 nM |  |  | 5.5% |  |  | 6800 nM |  | 
Cn1cc(-c2cnc3cnc(NC(=O)CC4CNCCO4)cc3c2)cn1 (stereo not shown) [Compound 2807, N-(3-(1-Methyl-1H-pyrazol-4-yl)-1,7-naphthyridin-6-yl)-2-(morpholin-2-yl) acetamide] | 74 nM | 7310 nM |  | > 10000 nM | > 10000 nM | 4940 nM | > 10000 nM |  | 7.9% | 35.2% | 0% |  | 919 nM |  | 
CN1CCC(n2cc(C(=O)Nc3cc4nc(-c5cnn(C)c5)ccc4cn3)cn2)CC1 [Compound 229, N-(2-(1-Methyl-1H-pyrazol-4-yl)-1,6-naphthyridin-7-yl)-1-(1-methylpiperidin-4-yl)-1H-pyrazole-4-carboxamide] | 11 nM | 859 nM |  | 90 nM | 122 nM | 2900 nM | 318 nM |  |  |  |  |  | 62 nM |  | 
O=C(Nc1ncc2ccc(-c3cncs3)cc2n1)C1CCN(C2COC2)CC1 [Compound 1523, 1-(Oxetan-3-yl)-N-(7-(thiazol-5-yl)quinazolin-2-yl)piperidine-4-carboxamide] | 47 nM | > 10000 nM | 6.2% | > 10000 nM | > 10000 nM | 1380 nM | > 10000 nM |  | 15.1% | 24.9% | 13.7% |  | 1800 nM |  | 
CN1CCN(c2ncc(C(=O)Nc3ncc4ccc(-c5cnn(C)c5)cc4n3)s2)CC1 [Compound 4570, N-(7-(1-Methyl-1H-pyrazol-4-yl)quinazolin-2-yl)-2-(4-methylpiperazin-1-yl) thiazole-5-carboxamide] | 3 nM | > 10000 nM | 18.4% | 3260 nM | 5620 nM | 2180 nM | > 10000 nM |  |  | 5.5% |  |  | 128 nM |  | 
